Experimental data from ChEMBL document CHEMBL3885881, “DrugMatrix”.

Species: Rattus norvegicus
Experiment: DrugMatrix - Regimen: Daily Repeat
Type: toxicity, organism-based, Sprague-Dawley
Design: regimen Daily Repeat, gender Male, age 6-8 weeks
Conditions: in vivo, po, route oral GAVAGE, […]; for ABSOLUTE BASOPHIL / ABSOLUTE EOSINOPHIL / ABSOLUTE LYMPHOCYTE / ABSOLUTE MONOCYTE / ABSOLUTE SEGMENTED NEUTROPHIL / BASOPHIL / EOSINOPHIL / ERYTHROCYTE COUNT / HEMATOCRIT / HEMOGLOBIN / LEUKOCYTE COUNT / LYMPHOCYTE / MEAN CORPUSCULAR HEMOGLOBIN / MEAN CORPUSCULAR HEMOGLOBIN CONCENTRATION / MEAN CORPUSCULAR VOLUME / MONOCYTE / NEUTROPHIL / NUCLEATED RED BLOOD CELLS / PLATELET COUNT: tissue Blood; for ALANINE AMINOTRANSFERASE / ALBUMIN / ALKALINE PHOSPHATASE / ASPARTATE AMINOTRANSFERASE / BLOOD UREA NITROGEN / CARBON DIOXIDE / CHLORIDE / CHOLESTEROL / CREATINE PHOSPHOKINASE / CREATININE / GLUCOSE / LACTATE DEHYDROGENASE / LIPASE / PHOSPHORUS / POTASSIUM / SODIUM / TOTAL BILIRUBIN / TOTAL PROTEIN / URIC ACID: tissue Plasma
[1] = 0 mg/kg, 72 h, dose level Control, time 3 day
[2] = 0 mg/kg, 120 h, dose level Control, time 5 day
[3] = 100 mg/kg, 72 h, dose level Low, time 3 day

CC(C)(Oc1ccc(Cl)cc1)C(=O)O [CLOFIBRIC ACID]
ABSOLUTE BASOPHIL [1]: 0 CELLS/uL
ABSOLUTE EOSINOPHIL [1]: 0 CELLS/uL
ABSOLUTE LYMPHOCYTE [1]: 14687.67 CELLS/uL
ABSOLUTE MONOCYTE [1]: 164 CELLS/uL
ABSOLUTE SEGMENTED NEUTROPHIL [1]: 1748.33 CELLS/uL
BASOPHIL [1]: 0%
EOSINOPHIL [1]: 0%
ERYTHROCYTE COUNT [1]: 5.51 x10E6/uL
HEMATOCRIT [1]: 33.68%
HEMOGLOBIN [1]: 13.4 G/DL
LEUKOCYTE COUNT [1]: 16.6 x10E3/uL
LYMPHOCYTE [1]: 88.83%
MEAN CORPUSCULAR HEMOGLOBIN [1]: 24.47 pg
MEAN CORPUSCULAR HEMOGLOBIN CONCENTRATION [1]: 39.82 G/DL
MEAN CORPUSCULAR VOLUME [1]: 61.23 fL
MONOCYTE [1]: 0.83%
NEUTROPHIL [1]: 10.33%
NUCLEATED RED BLOOD CELLS [1]: 0 /100WBC
PLATELET COUNT [1]: 1329.67 x10E3/uL
ALANINE AMINOTRANSFERASE [1]: 61.33 u/L
ALBUMIN [1]: 4.18 G/DL
ALKALINE PHOSPHATASE [1]: 332.5 u/L
ASPARTATE AMINOTRANSFERASE [1]: 98.33 u/L
BLOOD UREA NITROGEN [1]: 15.83 mg/dL
CARBON DIOXIDE [1]: 27.83 mmol/L
CHLORIDE [1]: 100 MEQ/L
CHOLESTEROL [1]: 76.17 mg/dL
CREATINE PHOSPHOKINASE [1]: 729.17 u/L
CREATININE [1]: 0.21 mg/dL
GLUCOSE [1]: 151.83 mg/dL
LACTATE DEHYDROGENASE [1]: 484.67 u/L
LIPASE [1]: 10 u/L
PHOSPHORUS [1]: 11.3 mg/dL
POTASSIUM [1]: 6.1 MEQ/L
SODIUM [1]: 142.9 MEQ/L
TOTAL BILIRUBIN [1]: 0.23 mg/dL
TOTAL PROTEIN [1]: 5.68 G/DL
URIC ACID [1]: 1.75 mg/dL
ABSOLUTE BASOPHIL [2]: 0 CELLS/uL
ABSOLUTE EOSINOPHIL [2]: 58.67 CELLS/uL
ABSOLUTE LYMPHOCYTE [2]: 15950.83 CELLS/uL
ABSOLUTE MONOCYTE [2]: 172.5 CELLS/uL
ABSOLUTE SEGMENTED NEUTROPHIL [2]: 2551.33 CELLS/uL
BASOPHIL [2]: 0%
EOSINOPHIL [2]: 0.33%
ERYTHROCYTE COUNT [2]: 5.5 x10E6/uL
HEMATOCRIT [2]: 34.05%
HEMOGLOBIN [2]: 13.42 G/DL
LEUKOCYTE COUNT [2]: 18.73 x10E3/uL
LYMPHOCYTE [2]: 84.5%
MEAN CORPUSCULAR HEMOGLOBIN [2]: 24.42 pg
MEAN CORPUSCULAR HEMOGLOBIN CONCENTRATION [2]: 39.42 G/DL
MEAN CORPUSCULAR VOLUME [2]: 61.97 fL
MONOCYTE [2]: 1%
NEUTROPHIL [2]: 14.17%
NUCLEATED RED BLOOD CELLS [2]: 0.33 /100WBC
PLATELET COUNT [2]: 1143.17 x10E3/uL
ALANINE AMINOTRANSFERASE [2]: 57 u/L
ALBUMIN [2]: 4.17 G/DL
ALKALINE PHOSPHATASE [2]: 347.33 u/L
ASPARTATE AMINOTRANSFERASE [2]: 93.67 u/L
BLOOD UREA NITROGEN [2]: 15.67 mg/dL
CARBON DIOXIDE [2]: 27.17 mmol/L
CHLORIDE [2]: 104.33 MEQ/L
CHOLESTEROL [2]: 69.5 mg/dL
CREATINE PHOSPHOKINASE [2]: 317.17 u/L
CREATININE [2]: 0.2 mg/dL
GLUCOSE [2]: 162.33 mg/dL
LACTATE DEHYDROGENASE [2]: 408.67 u/L
LIPASE [2]: 10.17 u/L
PHOSPHORUS [2]: 11.08 mg/dL
POTASSIUM [2]: 6.36 MEQ/L
SODIUM [2]: 146.07 MEQ/L
TOTAL BILIRUBIN [2]: 0.22 mg/dL
TOTAL PROTEIN [2]: 5.92 G/DL
URIC ACID [2]: 1.47 mg/dL
ABSOLUTE BASOPHIL [3]: 0 CELLS/uL
ABSOLUTE EOSINOPHIL [3]: 83.33 CELLS/uL
ABSOLUTE LYMPHOCYTE [3]: 12714.67 CELLS/uL
ABSOLUTE MONOCYTE [3]: 127.67 CELLS/uL
ABSOLUTE SEGMENTED NEUTROPHIL [3]: 1507.67 CELLS/uL
BASOPHIL [3]: 0%
EOSINOPHIL [3]: 0.67%
ERYTHROCYTE COUNT [3]: 5.9 x10E6/uL
HEMATOCRIT [3]: 36.47%
HEMOGLOBIN [3]: 14.53 G/DL
LEUKOCYTE COUNT [3]: 14.43 x10E3/uL
LYMPHOCYTE [3]: 88%
MEAN CORPUSCULAR HEMOGLOBIN [3]: 24.67 pg
MEAN CORPUSCULAR HEMOGLOBIN CONCENTRATION [3]: 39.87 G/DL
MEAN CORPUSCULAR VOLUME [3]: 61.83 fL
MONOCYTE [3]: 1%
NEUTROPHIL [3]: 10.33%
NUCLEATED RED BLOOD CELLS [3]: 0 /100WBC
PLATELET COUNT [3]: 1176.67 x10E3/uL
ALANINE AMINOTRANSFERASE [3]: 51 u/L
ALBUMIN [3]: 4.33 G/DL
ALKALINE PHOSPHATASE [3]: 364.33 u/L
ASPARTATE AMINOTRANSFERASE [3]: 99.67 u/L
BLOOD UREA NITROGEN [3]: 17 mg/dL
CARBON DIOXIDE [3]: 27 mmol/L
CHLORIDE [3]: 96 MEQ/L
CHOLESTEROL [3]: 62 mg/dL
CREATINE PHOSPHOKINASE [3]: 636.33 u/L
CREATININE [3]: 0.34 mg/dL
GLUCOSE [3]: 180.67 mg/dL
LACTATE DEHYDROGENASE [3]: 303.67 u/L
LIPASE [3]: 9.33 u/L
PHOSPHORUS [3]: 11.9 mg/dL
POTASSIUM [3]: 5.92 MEQ/L
SODIUM [3]: 141 MEQ/L
TOTAL BILIRUBIN [3]: 0.1 mg/dL
TOTAL PROTEIN [3]: 5.8 G/DL
URIC ACID [3]: 2.07 mg/dL
